Experimental data published in patent US6989153B2, “Radiation sensitive liposomes” (Varian Medical Systems Technologies, Inc., priority 1999, dated 2006).

Assay: Ionizing radiation initiated polymerization of liposomes, by loss of monomer absorption intensity
Type: physicochemical
Settings: for dependence of extent of polymerization on continuous or discontinuous exposure: ionizing radiation; for effect of dissolved oxygen on ionizing radiation initiated polymerization: liposomes in aqueous buffer, maximum dose rate 2.1×10^4 rad/h
Excerpt: The relative sensitivity to ionizing radiation of liposomes composed of either bis-SorbPC (1; FIG. 5), bis-DenPC (2; FIG. 5), or bis-AcrylPC (3; FIG. 5) was investigated. These polymerizable colipids have different reactivities that control the initial rate of polymerization, extent of polymerization, and inhibition by oxygen. The interaction of ionizing radiation with water produces radical species that can initiate radical chain polymerizations.
The rate of the ionizing radiation initiated polymerization (Rp) of liposomes composed of either bis-SorbPC, bis-DenPC, or bis-AcrylPC was determined by the loss of monomer absorption intensity. The maximum dose rate at the liposome samples was 2.1×10^4 rad/h. This intensity could be attenuated if desired. […] Radical polymerization of acryloyl functionalities are very sensitive to oxygen due to the high energy of the propagating species. In contrast, if the bis-AcrylPC liposome suspension was purged of oxygen the monomer could be converted to polymer in a few minutes. The Rp for bis-SorbPC liposomes in water (with or without oxygen present) was about twice that of bis-DenPC liposomes. The liposomes composed of bis-AcrylPC (without oxygen) were about 10 times more reactive than bis-SorbPC liposomes.
The usual experimental protocol for radiation exposure of the liposome samples utilized discontinuous exposure because samples for all the time points were exposed together. […] In some experiments the samples were exposed continuously. The percent loss of monomer depended on the total exposure, but was insensitive to whether the radiation was delivered in a continuous or punctuated manner.

Row | time for conversion of monomer to polymer (liposome suspension purged of oxygen) | change in monomer concentration (oxygen present, after 120 minutes of irradiation at the maximum dose rate) | reactivity relative to bis-SorbPC liposomes (without oxygen) | rate of polymerization (Rp) relative to bis-DenPC liposomes (liposomes in water, with or without oxygen present) | Compound | dependence of extent of polymerization on continuous or discontinuous exposure | effect of dissolved oxygen on ionizing radiation initiated polymerization
1 | a few minutes | no change in the monomer concentration | about 10 times | – | bis-AcrylPC | independent of whether the exposure to ionizing radiation was continuous or discontinuous | inhibited by oxygen
2 | – | – | – | about twice | CC=CC=CC(=O)OCCCCCCCCCC(=O)OC[C@H](COP(=O)([O-])OCC[N+](C)(C)C)OC(=O)CCCCCCCCCOC(=O)C=CC=CC [bis-SorbPC] | independent of whether the exposure to ionizing radiation was continuous or discontinuous | relatively insensitive to the presence of dissolved oxygen
3 | – | – | – | – | bis-DenPC | – | relatively insensitive to the presence of dissolved oxygen
